# Patent publication EP1000624A1, “Use of DOP as antioxidant, anti-ageing additive and medicament” (priority 1998, dated 2000)
# Assays:
# [1] = acute toxicity, peroral; parameters: species or system Ratte; settings: in vivo, po, rat
# Description: Die akute Toxizität von DOP wurde peroral an der Ratte bestimmt; die letale Dosis, bei der 50% der Versuchstiere verenden (LD50), beträgt mehr als 2000 mg/kg.
# [2] = tested on: Haut; assay: skin irritation test according to EU Commission 93/21/EEC; format: in vivo, Kaninchen; settings: rabbit; after 24, 48 and 72 hours
# From the text: (§1) Um festzustellen, ob DOP Reizungen der Augen oder der Haut hervorrufen kann, wurde am Kaninchen ein Augenreiztest und ein Hautreiztest durchgeführt, beide gemäß der Verordnung der EU-Kommission Nr. 93/21/EEC vom 27.04.1993.
# [3] = tested on: Kornea, Iris und Konjunktiva; assay: eye irritation test according to EU Commission 93/21/EEC; format: in vivo, Kaninchen; settings: rabbit; effects on cornea, iris and conjunctiva after 24, 48 and 72 hours
# From the text: as §1
smiles,measurement,setting,value
"O=[PH]1Oc2ccccc2-c2ccccc21 (stereo not shown) [DOP, (6H)-Dibenz-(c,e)(1,2)-oxaphosphorin-6-on]",LD50,[1],> 2000 mg/kg
same,Hautreiztest: Einstufung,[2],nicht hautreizend
same,Hautreiztest: Erythembildung / Oedembildung,[2],weder eine Erythembildung noch eine Oedembildung
same,Augenreiztest: Einstufung,[3],nicht augenreizend
